Data from US5707966A, “Antithrombotic agents” (Eli Lilly and Company, priority 1995, dated 1998).
Where a name gives a salt, the structure may show the parent alone. Read-outs that look alike come from different tables or passages of the source.

Key:
Human Thrombin = Human Thrombin (Homo sapiens, UniProt P00734); assay: Inhibition of amidase activity of thrombin (Kass); type: biochemical
factor Xa = biological target: T1, factor Xa (Homo sapiens, UniProt P00742); assay: Kass with factor Xa, chromogenic substrate; type: biochemical
T1 construct: Human factors X, Xa, IXa, XIa, and XIIa are purchased; purchased Enzyme Research Laboratories, South Bend, Ind
T1 sequence (P00742 235-488 limits assumed): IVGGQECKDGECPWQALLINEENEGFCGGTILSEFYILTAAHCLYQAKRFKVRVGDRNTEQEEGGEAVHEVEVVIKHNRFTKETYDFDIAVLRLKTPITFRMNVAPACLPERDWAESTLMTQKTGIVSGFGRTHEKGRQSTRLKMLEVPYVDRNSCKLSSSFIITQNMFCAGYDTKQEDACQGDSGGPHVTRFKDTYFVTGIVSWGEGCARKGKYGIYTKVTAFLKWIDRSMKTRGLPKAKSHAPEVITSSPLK
T1 sequence (P00742 41-179 partner limits assumed): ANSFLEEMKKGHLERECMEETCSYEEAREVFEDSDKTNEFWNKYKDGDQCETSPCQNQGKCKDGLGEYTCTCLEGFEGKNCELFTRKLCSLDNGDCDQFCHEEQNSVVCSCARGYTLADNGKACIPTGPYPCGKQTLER

Bovine trypsin = biological target: T2, Bovine trypsin (Bos taurus, UniProt P00760); assay: Kass with trypsin, chromogenic substrate; type: biochemical
T2 construct: Bovine trypsin is purchased; purchased Worthington Biochemicals, Freehold, N.J
T2 sequence (P00760 24-246): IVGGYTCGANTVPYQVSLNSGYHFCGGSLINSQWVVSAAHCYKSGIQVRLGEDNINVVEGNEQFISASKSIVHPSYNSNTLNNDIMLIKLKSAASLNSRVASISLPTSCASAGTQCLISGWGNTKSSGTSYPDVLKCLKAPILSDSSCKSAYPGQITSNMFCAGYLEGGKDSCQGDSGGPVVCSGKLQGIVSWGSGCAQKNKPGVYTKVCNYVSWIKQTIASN

Human plasmin = biological target: T3, Human plasmin (Homo sapiens, UniProt P00747); assay: Kass with plasmin, chromogenic substrate; type: biochemical
T3 construct: Human plasmin is purchased; purchased Boehringer Mannheim, Indianapolis, Ind
T3 sequence (P00747 97-810): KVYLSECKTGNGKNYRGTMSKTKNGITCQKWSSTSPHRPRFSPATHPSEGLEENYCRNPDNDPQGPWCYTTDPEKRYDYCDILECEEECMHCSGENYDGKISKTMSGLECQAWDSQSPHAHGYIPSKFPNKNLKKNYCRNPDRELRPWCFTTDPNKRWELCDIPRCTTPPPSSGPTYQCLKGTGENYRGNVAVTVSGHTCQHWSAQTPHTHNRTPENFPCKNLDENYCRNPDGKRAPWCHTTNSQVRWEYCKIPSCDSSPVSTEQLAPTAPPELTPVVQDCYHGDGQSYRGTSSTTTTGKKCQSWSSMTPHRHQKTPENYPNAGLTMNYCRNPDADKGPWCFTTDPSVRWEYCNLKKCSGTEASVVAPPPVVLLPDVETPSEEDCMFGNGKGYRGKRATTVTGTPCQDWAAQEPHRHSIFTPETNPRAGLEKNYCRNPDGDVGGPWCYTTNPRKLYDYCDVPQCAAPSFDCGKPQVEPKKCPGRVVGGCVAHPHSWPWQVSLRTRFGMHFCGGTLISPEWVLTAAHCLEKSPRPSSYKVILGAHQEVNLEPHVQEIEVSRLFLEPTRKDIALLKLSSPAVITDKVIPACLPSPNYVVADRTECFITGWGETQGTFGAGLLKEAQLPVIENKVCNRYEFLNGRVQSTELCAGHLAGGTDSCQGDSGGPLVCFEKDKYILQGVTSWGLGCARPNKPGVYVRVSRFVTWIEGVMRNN
T3 sequence (P00747 97-580 partner limits assumed): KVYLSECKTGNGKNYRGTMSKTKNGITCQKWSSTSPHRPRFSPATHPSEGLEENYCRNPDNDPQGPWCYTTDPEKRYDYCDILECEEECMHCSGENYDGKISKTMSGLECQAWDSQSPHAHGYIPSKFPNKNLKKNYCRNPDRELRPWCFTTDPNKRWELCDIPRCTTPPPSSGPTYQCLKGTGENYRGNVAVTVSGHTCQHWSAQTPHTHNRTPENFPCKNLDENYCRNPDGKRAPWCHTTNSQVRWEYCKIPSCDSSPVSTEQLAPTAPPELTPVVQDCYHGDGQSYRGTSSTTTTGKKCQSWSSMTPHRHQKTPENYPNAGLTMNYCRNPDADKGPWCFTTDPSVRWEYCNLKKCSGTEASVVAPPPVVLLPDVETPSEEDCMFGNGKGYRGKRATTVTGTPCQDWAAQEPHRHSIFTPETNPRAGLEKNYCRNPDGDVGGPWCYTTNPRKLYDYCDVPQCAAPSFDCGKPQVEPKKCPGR

t-PA = biological target: T4, t-PA (Homo sapiens, UniProt P00750); assay: Kass with t-PA, chromogenic substrate; type: biochemical; details: substrate H-D-Ile-Pro-Arg-p-nitroanilide
T4 construct: purchased American Diagnostica, Greenwich, Conn
T4 sequence (P00750 36-562): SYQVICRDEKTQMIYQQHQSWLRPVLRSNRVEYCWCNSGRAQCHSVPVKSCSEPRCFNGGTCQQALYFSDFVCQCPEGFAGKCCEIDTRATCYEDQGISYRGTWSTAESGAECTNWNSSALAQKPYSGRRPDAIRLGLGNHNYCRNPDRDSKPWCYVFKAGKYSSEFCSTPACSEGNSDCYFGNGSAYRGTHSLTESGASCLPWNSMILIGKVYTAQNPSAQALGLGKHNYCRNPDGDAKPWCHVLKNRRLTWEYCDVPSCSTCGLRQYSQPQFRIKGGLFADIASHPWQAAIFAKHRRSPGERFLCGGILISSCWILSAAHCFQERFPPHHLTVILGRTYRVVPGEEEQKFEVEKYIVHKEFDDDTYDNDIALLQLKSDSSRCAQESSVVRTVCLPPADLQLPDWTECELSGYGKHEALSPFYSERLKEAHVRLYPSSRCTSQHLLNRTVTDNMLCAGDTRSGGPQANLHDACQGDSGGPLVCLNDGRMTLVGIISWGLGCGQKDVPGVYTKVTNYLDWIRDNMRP

Human plasma [1] = assay: Human plasma anticoagulation, thrombin time (TT); type: biochemical; details: concentration required to double the thrombin time, linear extrapolation
In short: (§1)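 Compounds added across a wide concentration range to plasma; PT measured with Thromboplastin-C, APTT after 120 s Actin incubation then 0.02 M CaCl2, TT with bovine thrombin (10 NIH units/mL). Clotting-time doubling concentrations estimated by linear extrapolation.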

[2] = Index of bioavailability (% Relative Activity, plasma TT AUC oral vs i.v.); type: in vivo; details: dose-adjusted AUC of plasma TT, p.o. vs i.v. bolus
Description: Parke Davis) at 37° C. […] Assays are done in duplicate and averaged. […] Each sample population represented alternating sequential time points.

Human plasma [3] = assay: Human plasma anticoagulation, activated partial thromboplastin time (APTT); type: biochemical; details: concentration required to double the APTT, linear extrapolation
In short: as §1

Human plasma [4] = assay: Human plasma anticoagulation, prothrombin time (PT); type: biochemical; details: concentration required to double the PT, linear extrapolation
In short: as §1

[5] = mean over a range of concentrations, […]
[6] = substrate N-Benzoyl-Ile-Glu-Gly-Arg-p-nitroanilide
[7] = substrate N-Benzoyl-Phe-Val-Arg-p-nitroanilide
[8] = substrate H-D-Val-Leu-Lys-p-nitroanilide

Compound	Kass t-PA (t-PA)	Kass Human Thrombin (Human Thrombin; [5])	Kass Xa (factor Xa; [6])	Kass Trypsin (Bovine trypsin; [7])	Kass Plasmin (Human plasmin; [8])	Kass Human Thrombin (Human Thrombin)	Kass Xa (factor Xa)	Kass Trypsin (Bovine trypsin)	Kass Plasmin (Human plasmin)	Human Plasma Anticoagulation 2× Clotting time TT (Human plasma [1])	% oral/i.v. activity (Rat) [2] [%]	Human Plasma Anticoagulation 2× Clotting time APTT (Human plasma [3])	Human Plasma Anticoagulation 2× Clotting time PT (Human plasma [4])
CCS(=O)(=O)N[C@H](Cc1ccccc1)C(=O)N1CCC[C@H]1C(=O)NCCCCNC(=N)N [Example 1, EtSO2 -D-Phe-Pro-Agm.HCl]	0.082 × 10^6 (L/mole)	–	–	–	–	3.3	0.0017	0.38	0.010	250 ng/mL	8	–	–
HOOCCH2 -D-Phe-Pro-p-NHCH2 C6 H4 C(NH)NH2.HCl [Example 46]	0.01 × 10^6 (L/mole)	–	–	48 × 10^6 (L/mole)	–	240	0.07	–	0.13	2 ng/mL	–	67 ng/mL	77 ng/mL
N=C(N)c1cccc(CNC(=O)[C@@H]2CCCN2C(=O)[C@H](N)Cc2ccccc2)c1 [Example 16, D-Phe-Pro-m-NHCH2 C6 H4 C(NH)NH2.0.75HCl]	0.0012 × 10^6 (L/mole)	0.97 × 10^6 (L/mole)	0.0051 × 10^6 (L/mole)	0.02 × 10^6 (L/mole)	0.0017 × 10^6 (L/mole)	–	–	–	–	650 ng/mL	–	8,600 ng/mL	8,500 ng/mL
O=C(O)CN[C@H](CC1CCCCC1)C(=O)N1CCC[C@H]1C(=O)NCC1CCNCC1 [Example 53, HO2 CCH2 -D-Cha-Pro-4-NHCH2 -piperidine.HCl]	< 0.001 × 10^6 (L/mole)	0.36 × 10^6 (L/mole)	< 0.001 × 10^6 (L/mole)	0.1 × 10^6 (L/mole)	< 0.001 × 10^6 (L/mole)	–	–	–	–	1,400 ng/mL	–	33,800 ng/mL	34,500 ng/mL

More lines, main results first:

Kass t-PA (t-PA)	Kass Human Thrombin (Human Thrombin; [5])	Kass Xa (factor Xa; [6])	Kass Trypsin (Bovine trypsin; [7])	Kass Plasmin (Human plasmin; [8])	Compound	Kass Human Thrombin (Human Thrombin)	Kass Xa (factor Xa)	Kass Trypsin (Bovine trypsin)	Kass Plasmin (Human plasmin)	Human Plasma Anticoagulation 2× Clotting time TT (Human plasma [1])	% oral/i.v. activity (Rat) [2] [%]	Human Plasma Anticoagulation 2× Clotting time APTT (Human plasma [3])	Human Plasma Anticoagulation 2× Clotting time PT (Human plasma [4])
< 0.001 × 10^6 (L/mole)	0.95 × 10^6 (L/mole)	0.01 × 10^6 (L/mole)	0.11 × 10^6 (L/mole)	< 0.001 × 10^6 (L/mole)	N=C(N)c1ccc(CCNC(=O)[C@@H]2CCCN2C(=O)[C@@H]2NCC[C@@H]3CCCC[C@@H]32)cc1 [Example 28, 1-Piq-Pro-p-NHCH2 CH2 --C6 H4 C(=NH)NH2.2HCl]	–	–	–	–	520 ng/mL	–	8,100 ng/mL	8,300 ng/mL
0.002 × 10^6 (L/mole)	3.6 × 10^6 (L/mole)	0.62 × 10^6 (L/mole)	0.96 × 10^6 (L/mole)	0.031 × 10^6 (L/mole)	D-hPro-N(PhCH2 CH2)Gly-p-NHCH2 --C6 H4 C(NH)NH2.2HCl [Example 21]	–	–	–	–	160 ng/mL	–	2,000 ng/mL	1,000 ng/mL
0.0034 × 10^6 (L/mole)	33 × 10^6 (L/mole)	0.049 × 10^6 (L/mole)	3.8 × 10^6 (L/mole)	0.024 × 10^6 (L/mole)	D-hPro-Pro-p-NHCH2 C6 H4 C(NH)NH2.HCl [Example 17]	–	–	–	–	26 ng/mL	–	370 ng/mL	400 ng/mL
